Values belong to the compound of their own block, whether it stands above or below them.
Experiments:
[1] = biological target: human TRPV3 (Homo sapiens (Human), UniProt Q8NET8); assay: Radiometric calcium selectivity assay, CHO cells expressing human TRPV3 (2-aminoethoxydiphenyl borate); type: cell-based; conditions: read-out: IC50 values hTRPV3
[2] = biological target: human TRPV4 (Homo sapiens (Human), UniProt Q9HBA0); assay: Radiometric calcium selectivity assay, CHO cells expressing human TRPV4 (4α-phorbol 12,13-didecanoate); type: cell-based; conditions: read-out: IC50 values hTRPV4
Sequence of human TRPV4 (Q9HBA0 whole entry): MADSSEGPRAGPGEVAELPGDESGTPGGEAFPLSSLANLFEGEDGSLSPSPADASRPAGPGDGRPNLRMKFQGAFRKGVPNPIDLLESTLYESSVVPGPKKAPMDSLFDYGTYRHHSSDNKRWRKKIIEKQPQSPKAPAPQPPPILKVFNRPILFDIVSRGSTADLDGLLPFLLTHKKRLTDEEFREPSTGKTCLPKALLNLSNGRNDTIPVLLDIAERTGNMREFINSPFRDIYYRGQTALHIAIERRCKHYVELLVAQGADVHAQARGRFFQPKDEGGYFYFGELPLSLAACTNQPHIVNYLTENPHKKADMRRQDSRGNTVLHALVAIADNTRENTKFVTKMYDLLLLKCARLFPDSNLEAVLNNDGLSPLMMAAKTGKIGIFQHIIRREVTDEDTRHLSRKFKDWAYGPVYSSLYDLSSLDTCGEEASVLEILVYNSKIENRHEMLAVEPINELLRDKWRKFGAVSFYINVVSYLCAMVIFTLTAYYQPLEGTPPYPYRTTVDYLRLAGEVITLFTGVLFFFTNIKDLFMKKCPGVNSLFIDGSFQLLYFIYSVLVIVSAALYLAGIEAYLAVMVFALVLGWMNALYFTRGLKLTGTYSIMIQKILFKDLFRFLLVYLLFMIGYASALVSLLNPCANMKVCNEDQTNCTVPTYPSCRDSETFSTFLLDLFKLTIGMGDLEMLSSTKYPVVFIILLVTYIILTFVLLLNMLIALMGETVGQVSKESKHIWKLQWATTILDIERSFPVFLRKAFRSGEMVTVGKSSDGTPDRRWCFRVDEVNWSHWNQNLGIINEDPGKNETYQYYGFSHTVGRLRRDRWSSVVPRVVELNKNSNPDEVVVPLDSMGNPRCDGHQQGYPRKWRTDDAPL

[3] = biological target: human TRPV1 (Homo sapiens (Human), UniProt Q8NER1); assay: Radiometric calcium selectivity assay, CHO cells expressing human TRPV1 (capsaicin); type: cell-based; conditions: read-out: IC50 values hTRPV1
Sequence of human TRPV1 (Q8NER1 whole entry): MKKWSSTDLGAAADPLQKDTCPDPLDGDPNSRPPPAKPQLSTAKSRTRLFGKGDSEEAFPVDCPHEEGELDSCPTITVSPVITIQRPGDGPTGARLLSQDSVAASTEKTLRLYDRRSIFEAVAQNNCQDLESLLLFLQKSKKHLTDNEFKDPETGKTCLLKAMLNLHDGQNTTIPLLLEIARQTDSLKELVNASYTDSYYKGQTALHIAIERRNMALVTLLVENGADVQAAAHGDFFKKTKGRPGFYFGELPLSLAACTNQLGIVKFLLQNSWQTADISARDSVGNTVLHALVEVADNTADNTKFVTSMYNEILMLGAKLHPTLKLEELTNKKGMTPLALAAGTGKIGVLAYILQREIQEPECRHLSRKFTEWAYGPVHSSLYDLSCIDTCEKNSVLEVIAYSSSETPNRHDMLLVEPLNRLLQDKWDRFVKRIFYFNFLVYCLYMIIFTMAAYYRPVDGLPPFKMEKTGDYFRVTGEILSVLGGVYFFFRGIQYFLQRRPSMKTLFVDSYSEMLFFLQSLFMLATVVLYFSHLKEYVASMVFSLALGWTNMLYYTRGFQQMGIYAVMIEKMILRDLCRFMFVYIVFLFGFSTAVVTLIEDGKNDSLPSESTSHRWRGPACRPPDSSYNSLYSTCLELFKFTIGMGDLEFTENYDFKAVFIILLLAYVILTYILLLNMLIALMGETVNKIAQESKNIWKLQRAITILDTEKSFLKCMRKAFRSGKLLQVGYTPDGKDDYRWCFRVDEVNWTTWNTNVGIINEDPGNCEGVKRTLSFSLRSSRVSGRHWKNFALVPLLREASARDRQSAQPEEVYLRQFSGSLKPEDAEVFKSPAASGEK

[4] = system: ovalbumin sensitized Brown Norway rats; assay: Ovalbumin asthma model in Brown Norway rats (Example 5); type: in vivo, rat; conditions: i.t. 1 hour before ovalbumin challenge, BAL 48 hours; dose dependent
Description: (§1) Male BN rats were sensitized subcutaneously (s.c.) on day 0, 14 and 21 with 0.5 ml solution containing 20 μg/ml ovalbumin (Ova) and 40 mg/ml aluminum hydroxide. Simultaneously the animals were injected intraperitoneally (i.p.) with 0.25 ml of B. pertussis vaccine/rat containing 4×10^8 heat killed bacilli/ml. The rats were challenged with 1% aerosolized ovalbumin on Day 28 following sensitization.
Test compounds were triturated and volume was made up with Normal Saline (0.9% NaCl). Animals were administered TRPA1 antagonists (Compound 52, Compound 73, Compound 84, Compound 90 and Compound 92) intra-tracheally (i.t.) 1 hour and fluticasone 24 hours and 1 hour before ovalbumin challenge. Animals were sacrificed 48 hours after ovalbumin challenge.
BAL was performed at approximately 48 hours after ovalbumin challenge and the pooled BAL was used to determined total number of cells and for cell differential study (according to Example 2).
The total number of eosinophils in each BAL sample and % inhibition of eosinophils were calculated according to Example 3
(§2) The data was statistically evaluated by ANOVA followed by Dunnett's multiple comparisons test.

[5] = biological target: human TRPM8 (Homo sapiens (Human), UniProt Q7Z2W7); assay: Radiometric calcium selectivity assay, CHO cells expressing human TRPM8 (icilin); type: cell-based; conditions: read-out: IC50 values hTRPM8
Sequence of human TRPM8 (Q7Z2W7 whole entry): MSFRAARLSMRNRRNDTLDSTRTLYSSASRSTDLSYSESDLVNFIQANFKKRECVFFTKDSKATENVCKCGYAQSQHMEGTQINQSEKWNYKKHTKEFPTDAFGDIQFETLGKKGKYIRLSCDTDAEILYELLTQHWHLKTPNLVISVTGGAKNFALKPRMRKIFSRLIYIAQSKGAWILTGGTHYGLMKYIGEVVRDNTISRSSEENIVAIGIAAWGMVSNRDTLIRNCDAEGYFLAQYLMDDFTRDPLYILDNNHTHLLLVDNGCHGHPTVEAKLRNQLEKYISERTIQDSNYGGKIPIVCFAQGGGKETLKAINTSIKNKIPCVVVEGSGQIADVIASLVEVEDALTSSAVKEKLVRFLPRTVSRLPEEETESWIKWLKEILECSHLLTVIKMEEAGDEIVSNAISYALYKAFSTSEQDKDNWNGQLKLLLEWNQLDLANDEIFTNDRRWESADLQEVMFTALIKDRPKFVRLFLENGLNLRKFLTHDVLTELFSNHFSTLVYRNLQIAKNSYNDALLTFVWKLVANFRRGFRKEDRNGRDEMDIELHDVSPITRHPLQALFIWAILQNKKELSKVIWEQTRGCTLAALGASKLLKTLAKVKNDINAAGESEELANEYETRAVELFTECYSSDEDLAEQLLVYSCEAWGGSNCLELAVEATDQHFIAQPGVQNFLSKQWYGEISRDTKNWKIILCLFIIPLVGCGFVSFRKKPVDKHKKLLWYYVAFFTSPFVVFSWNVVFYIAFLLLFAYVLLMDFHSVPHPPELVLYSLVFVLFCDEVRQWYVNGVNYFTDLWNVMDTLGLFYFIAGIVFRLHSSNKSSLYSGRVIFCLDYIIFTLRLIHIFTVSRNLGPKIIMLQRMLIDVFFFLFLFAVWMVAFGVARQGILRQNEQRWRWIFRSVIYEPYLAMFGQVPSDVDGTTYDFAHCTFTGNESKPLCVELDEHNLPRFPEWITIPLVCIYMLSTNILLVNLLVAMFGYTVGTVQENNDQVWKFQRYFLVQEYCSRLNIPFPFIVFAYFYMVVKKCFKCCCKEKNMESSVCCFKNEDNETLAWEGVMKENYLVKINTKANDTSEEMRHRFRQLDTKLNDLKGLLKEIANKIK

[6] = system: LPS exposed Brown Norway rats; assay: Aerosolized LPS induced airway inflammation in Brown Norway rats; type: in vivo, rat; conditions: i.t. 4 hours before LPS; Compound 52 1000 μg/animal, Compound 90 2000 μg/animal; BAL 12 hours
Description: Male Brown Norway rats were exposed to aerosolized Lipopolysaccharide (LPS) (100 μg/ml) for 40 minutes at 1.8 bar pressure using a nebulizer (Hudson Respiratory Care Incorporated), phosphate buffered saline (PBS) control animals were exposed to hyrdroxylamine hydrochloride in PBS.
Test compounds were triturated and volume was made up with either distilled water or normal saline (0.9% NaCl). Animals were administered Compound 52 and Compound 90 intra-treacheally 4 hours before LPS aerosolized exposure. Animals were sacrificed 12 hours after aerosolized exposure. The control group of animals received only 2 mg Lactose/100 μl distilled water/animal intratracheally or normal saline 100 μl/animal intratracheally.
Broncho alveolar lavage (BAL) was performed at approximately 12 hours after aerosolized exposure. Animals were euthanized with an overdose of urethane, trachea was exposed and BAL was performed 5 times using 2 ml PBS. All aspirates of BAL were pooled and total number of cells determined using a hemocytometer. BALFwas centrifuged. […]
The total number of neutrophils in each BAL sample was calculated using the formula:
[formula] Percent inhibition of neutrophils was calculated using the following formula:
[formula] Data was statistically evaluated by ANOVA followed by Dunnett's multiple comparisons test. […]

[7] = system: ovalbumin sensitized Dunkin Hartley guinea pigs; assay: Ovalbumin induced asthma model in guinea pigs, intra-tracheal dosing; type: in vivo, guinea pig; conditions: for Percent inhibition of eosinophils: BAL 48 hours after challenge; for Airway conductance sGAW (AUC): 4 hours before ovalbumin challenge
Description: Healthy male Dunkin Hartley guinea pigs weighing between 300-400 gm were sensitized on day 0 with (5 mg) and on day 2 with (10 mg) of ovalbumin (Ova) and 10 mg of aluminum hydroxide gel given intra peritoneal (i.p.). Guinea pigs were challenged with 0.3% aerosolized ovalbumin on Day 21 following sensitization.
Actively sensitized male guinea pigs with free access to water, were fasted overnight, and used for the studies. Animals were assigned to one of the following groups during each experiment as per Table 2 below.
Guinea pigs were dosed intra-tracheally with Compound 52 or vehicle 4 hours before exposure to aerosolized ovalbumin challenge. The control group of animals received vehicle (Lactose powder—2 mg/animal, i.t.) only.
Broncho Alveolar Lavage (BAL) was performed at 48 hours after challenge with ovalbumin. Animals were anesthetized with an overdose of urethane, trachea was exposed and BAL was performed 5 times using 5 mL PBS. All aspirates of BAL were pooled and total number of cells determined using a hemocytometer. The BAL was centrifuged, and the cell pellet re-suspended in 50 μL guinea pig serum and used for preparation of smears. Slides were stained with Giemsa stain and a differential cell count of 500 cells based on standard morphology was performed manually.
The total number of eosinophils in each BAL sample was calculated using the formula:
[formula] Percent inhibition of eosinophils was calculated using the following formula: […]
The results for the bronchoconstriction part were calculated as percent (%) change in sGaw from saline base-line readings with saline taken just 1 minute before the antigen challenge and reported as peak change (mean±S.E.M.) for every 5 minutes for a total duration of 30 min after OA challenge. Area under the curve (AUC) was determined for each animal using GraphPad Prism. The percent (%) increase in AUC in the treated group relative to the vehicle group was calculated. Data was statistically analyzed using ANOVA and Dunnett's post hoc test.

[8] = Pharmacokinetics in guinea pig upon intra-tracheal administration; type: in vivo; conditions: 500 mcg i.t.; for AUC0-24 / Cmax: mean ± SD (N = 3); for Tmax: guinea pig, other: intra-tracheal, 500 ug
Description: Guinea pigs were dosed intra-tracheally with Compound 52 with lactose as a vehicle. At various time points, animals were sacrificed with an overdose of urethane, trachea was exposed and BAL was performed 5 times using 5 mL PBS. Lung tissue was collected and kept at −70° C. until analysis. The BAL was centrifuged, and the cell pellet was collected and kept at −70° C. until analysis.

[9] = system: ovalbumin sensitized Brown Norway rats; assay: Ovalbumin challenge in Brown Norway rats, intra-tracheal dosing (Example 3); type: in vivo, rat; conditions: i.t.
Description: as §1, with “Brown Norway” for “BN”, “subcutaneously” for “subcutaneously (s.c.)”, “ovalbumin” for “ovalbumin (Ova)”, “Simultaneously” for “Simultaneously the”, “Rats” for “The rats”
Test compounds were triturated and volume was made up with Normal Saline (0.9% NaCl). Animals were administered Compound 52 intra-tracheally 1 hour before ovalbumin challenge. Animals were sacrificed 48 hours after ovalbumin challenge and BAL was performed as mentioned in Example 2. The pooled BAL was used to determined total number of cells using a hemocytometer. Further, cell differential study was performed according to Example 2.
The total number of eosinophils in each BAL sample was calculated using the formula: […]
Percent inhibition of eosinophils was calculated using the following formula: […]
as §2

Sequence of human TRPV3 (Q8NET8 whole entry): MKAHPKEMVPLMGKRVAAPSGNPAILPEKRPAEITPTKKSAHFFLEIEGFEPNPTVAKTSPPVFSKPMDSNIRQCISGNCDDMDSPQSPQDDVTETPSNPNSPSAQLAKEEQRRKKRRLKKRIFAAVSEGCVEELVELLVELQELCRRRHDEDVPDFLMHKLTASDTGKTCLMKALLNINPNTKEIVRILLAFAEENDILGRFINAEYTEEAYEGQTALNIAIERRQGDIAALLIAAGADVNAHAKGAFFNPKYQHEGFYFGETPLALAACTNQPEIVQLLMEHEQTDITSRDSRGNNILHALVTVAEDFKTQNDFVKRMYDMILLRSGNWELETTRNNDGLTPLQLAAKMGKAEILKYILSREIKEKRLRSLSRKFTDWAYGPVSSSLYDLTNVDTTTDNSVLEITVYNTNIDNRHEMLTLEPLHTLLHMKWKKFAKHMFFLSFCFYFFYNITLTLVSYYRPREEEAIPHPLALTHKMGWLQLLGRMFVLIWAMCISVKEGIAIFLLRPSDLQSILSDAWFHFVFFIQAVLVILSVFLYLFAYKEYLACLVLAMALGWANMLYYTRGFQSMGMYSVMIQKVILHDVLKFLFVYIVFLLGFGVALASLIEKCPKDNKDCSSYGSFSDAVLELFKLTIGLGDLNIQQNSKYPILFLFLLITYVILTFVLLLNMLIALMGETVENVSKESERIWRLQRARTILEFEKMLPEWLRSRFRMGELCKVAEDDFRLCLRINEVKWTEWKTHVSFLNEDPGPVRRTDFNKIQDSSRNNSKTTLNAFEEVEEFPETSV

IC50 [1]: > 10 µM
IC50 [2]: > 10 µM
IC50 [3]: > 10 µM
IC50 [5]: > 10 µM
Compound: COCCCOc1cccc(C2NC(=S)NC3=C2C(=O)c2ccccc23)c1 (stereo not drawn) [Compound 90]
pulmonary eosinophilia [4]: significant inhibition
neutrophils in BALF [6]: significant inhibition
total leukocytes in BALF [6]: significant inhibition

Compound: Cn1c(=O)c2c(CC(=O)Nc3nc(-c4ccc(F)c(C(F)(F)F)c4F)cs3)csc2n(C)c1=O [Compound 52]
Percent inhibition of eosinophils ([7]; dose 125 μg/animal i.t.): 61%
Percent inhibition of eosinophils ([7]; dose 250 μg/animal i.t.): 87%
Percent inhibition of eosinophils ([7]; dose 500 μg/animal i.t.): 68%
Airway conductance sGAW (AUC) ([7]; dose 25 (table μg/kg; text μg/animal) i.t.): 1399
Percent improvement in airway conductance ([7]; dose 25 i.t.): 0%
Percent inhibition of eosinophils ([7]; dose 25 i.t.): 0%
Percent improvement in airway conductance ([7]; dose 50 i.t.): 7%
Airway conductance sGAW (AUC) ([7]; dose 50 i.t.): 1592
Percent inhibition of eosinophils ([7]; dose 50 i.t.): 0%
Percent improvement in airway conductance ([7]; dose 125 i.t.): 39%
Airway conductance sGAW (AUC) ([7]; dose 125 i.t.): 1943
Percent improvement in airway conductance ([7]; dose 250 i.t.): 45%
Airway conductance sGAW (AUC) ([7]; dose 250 i.t.): 2004
Percent improvement in airway conductance ([7]; dose 500 i.t.): 43%
Airway conductance sGAW (AUC) ([7]; dose 500 i.t.): 1987
inhibition of eosinophils ([7]; dose not stated for this figure): 75%
AUC0-24 ([8]; Cell Pellet (BAL)): 70390 ± 12071 ng · h/ml or g
Cmax ([8]; Cell Pellet (BAL)): 6726 ± 2049 ng/ml or g
AUC0-24 ([8]; Lung Tissue): 103786 ± 28285 ng · h/ml or g
Cmax ([8]; Lung Tissue): 4989 ± 2548 ng/ml or g
Tmax ([8]; Cell Pellet (BAL)): 0.25 h
Tmax ([8]; Lung Tissue): 8 h
ED50, inhibition of pulmonary eosinophilia [9]: 213 µg

Reference: US9186360B2, “Treatment of respiratory disorders using TRPA1 antagonists” (GLENMARK PHARMACEUTICALS S.A., priority 2011, dated 2015)
